Data reported in US9113629B2, “4-amino-6-(4-substituted-phenyl)-picolinates and 6-amino-2-(4-substituted-phenyl)-pyrimidine-4-carboxylates and their use as herbicides” (DOW AGROSCIENCES LLC, priority 2013, dated 2015).
Where two headings read alike, the source gives them in different places.

Tested on: test plant species in Direct Seeded Rice
Experiment: Postemergence herbicidal activity in direct seeded rice (Table 13)
Assay type: in vivo
Settings: for GR50 BRAPP / GR80 BRAPP / GR50 CYPSS / GR80 CYPSS / GR50 ECHSS / GR80 ECHSS / GR50 LEFSS / GR80 LEFSS / GR20 ORYSS / GR50 SCPJU / GR80 SCPJU / GR50 SEBEX / GR80 SEBEX: probit analysis; for GR20 ORYSS: ORYSS: Oryza sativa (crop); for pest or weed control at 35 g/ha / pest or weed control at 70 g/ha: post-emergence, 504 h
Source text: Seeds or nutlets of the desired test plant species were planted in a soil matrix prepared by mixing a loam soil (43 percent silt, 19 percent clay, and 38 percent sand, with a pH of about 8.1 and an organic matter content of about 1.5 percent) and river sand in an 80 to 20 ratio. The soil matrix was contained in plastic pots with a surface area of 139.7 cm^2. When required to ensure good germination and healthy plants, a fungicide treatment and/or other chemical or physical treatment was applied. The plants were grown for 10-17 d in a greenhouse with an approximate 14-h photoperiod which was maintained at about 29° C. during the day and 26° C. during the night. Nutrients and water were added on a regular basis and supplemental lighting was provided with overhead metal halide 1000-Watt lamps as necessary. The plants were employed for testing when they reached the second or third true leaf stage. A weighed amount, determined by the highest rate to be tested, of each test compound was placed in 25 mL glass vials and dissolved in a volume of 97:3 v/v acetone-DMSO to obtain 12× stock solutions. […] The concentrated stock solutions were added to the spray solutions so that the final acetone and DMSO concentrations were 16.2% and 0.5%, respectively. Spray solutions were diluted to the appropriate final concentrations with the addition of 10 mL of an aqueous mixture of 1.5% (v/v) Agri-dex crop oil concentrate. […] Compound requirements are based upon a 12 mL application volume at a rate of 187 L/ha. Formulated compounds were applied to the plant material with an overhead Mandel track sprayer equipped with […] nozzles calibrated to deliver 187 L/ha over an application area of 0.503 square meters (m^2) at a spray height of 18 inches (43 cm) above average plant canopy height. Control plants were sprayed in the same manner with the solvent blank. The treated plants and control plants were placed in a greenhouse as described above and watered by sub-irrigation to prevent wash-off of the test compounds. After 20-22 days, the condition of the test plants, compared with that of the untreated plants, was determined visually and scored on a scale of 0 to 100 percent where 0 corresponds to no injury and 100 corresponds to complete kill. By applying the well-accepted probit analysis as described by J. Berkson in Journal of the American Statistical Society, 48, 565 (1953) and by D. Finney in “Probit Analysis” Cambridge University Press (1952), the above data can be used to calculate GR20, GR50, GR80 and GR90 values, which are defined as growth reduction factors that correspond to the effective dose of herbicide required to kill or control 20 percent, 50 percent, 80 percent or 90 percent, respectively, of a target plant.

[1] = BRAPP: broadleaf signalgrass, Brachiaria platyphylla
[2] = CYPSS: sedge (Cyperus difformis, esculentus, iria)
[3] = ECHSS: barnyardgrass (Echinochloa crus-galli), junglerice (Echinochloa colonum)
[4] = LEFSS: sprangletop (Leptochloa chinensis, Leptochloa dubia)
[5] = SCPJU: Japanese bulrush, Scirpus juncoides
[6] = SEBEX: hemp sesbania, Sesbania exaltata
[7] = BRAPP: broadleaf signalgrass, Brachiaria platyphylla, 35 g ai/ha, read-out: Visual Growth Reduction (%) 21 Days After Application BRAPP
[8] = BRAPP: broadleaf signalgrass, Brachiaria platyphylla, 70 g ai/ha, read-out: Visual Growth Reduction (%) 21 Days After Application BRAPP
[9] = CYPSS: sedge (Cyperus difformis, esculentus, iria), 35 g ai/ha, read-out: Visual Growth Reduction (%) 21 Days After Application CYPSS
[10] = CYPSS: sedge (Cyperus difformis, esculentus, iria), 70 g ai/ha, read-out: Visual Growth Reduction (%) 21 Days After Application CYPSS
[11] = ECHSS: barnyardgrass (Echinochloa crus-galli), junglerice (Echinochloa colonum), 35 g ai/ha, read-out: Visual Growth Reduction (%) 21 Days After Application ECHSS
[12] = ECHSS: barnyardgrass (Echinochloa crus-galli), junglerice (Echinochloa colonum), 70 g ai/ha, read-out: Visual Growth Reduction (%) 21 Days After Application ECHSS
[13] = LEFSS: sprangletop (Leptochloa chinensis, Leptochloa dubia), 35 g ai/ha, read-out: Visual Growth Reduction (%) 21 Days After Application LEFSS
[14] = LEFSS: sprangletop (Leptochloa chinensis, Leptochloa dubia), 70 g ai/ha, read-out: Visual Growth Reduction (%) 21 Days After Application LEFSS
[15] = ORYSS: Oryza sativa, 35 g ai/ha, read-out: Visual Growth Reduction (%) 21 Days After Application ORYSS
[16] = ORYSS: Oryza sativa, 70 g ai/ha, read-out: Visual Growth Reduction (%) 21 Days After Application ORYSS
[17] = SCPJU: Japanese bulrush, Scirpus juncoides, 35 g ai/ha, read-out: Visual Growth Reduction (%) 21 Days After Application SCPJU
[18] = SCPJU: Japanese bulrush, Scirpus juncoides, 70 g ai/ha, read-out: Visual Growth Reduction (%) 21 Days After Application SCPJU
[19] = SEBEX: hemp sesbania, Sesbania exaltata, 35 g ai/ha, read-out: Visual Growth Reduction (%) 21 Days After Application SEBEX
[20] = SEBEX: hemp sesbania, Sesbania exaltata, 70 g ai/ha, read-out: Visual Growth Reduction (%) 21 Days After Application SEBEX

SMILES | GR50 BRAPP [1] | GR80 BRAPP [1] | GR50 CYPSS [2] | GR80 CYPSS [2] | GR50 ECHSS [3] | GR80 ECHSS [3] | GR50 LEFSS [4] | GR80 LEFSS [4] | GR20 ORYSS | GR50 SCPJU [5] | GR80 SCPJU [5] | GR50 SEBEX [6] | GR80 SEBEX [6] | pest or weed control at 35 g/ha [7] | pest or weed control at 70 g/ha [8] | pest or weed control at 35 g/ha [9] | pest or weed control at 70 g/ha [10] | pest or weed control at 35 g/ha [11] | pest or weed control at 70 g/ha [12] | pest or weed control at 35 g/ha [13] | further results
Nc1cc(-c2ccc(I)cc2F)nc(C(=O)O)c1Cl [Compound 124] | 4 g ai/ha | 8 g ai/ha | 1 g ai/ha | 1 g ai/ha | 2 g ai/ha | 6 g ai/ha | 7 g ai/ha | 16 g ai/ha | 1 g ai/ha | 1 g ai/ha | 1 g ai/ha | 1 g ai/ha | 1 g ai/ha | 95 to 100% | 95 to 100% | 95 to 100% | 95 to 100% | 95 to 100% | 95 to 100% | 95 to 100% | pest or weed control at 70 g/ha [14]: 95 to 100%; pest or weed control at 35 g/ha [15]: 60 to 74%; pest or weed control at 70 g/ha [16]: 85 to 94%; pest or weed control at 35 g/ha [17]: 95 to 100%; pest or weed control at 70 g/ha [18]: 95 to 100%; pest or weed control at 35 g/ha [19]: 95 to 100%; pest or weed control at 70 g/ha [20]: 95 to 100%
Nc1c(Cl)c(C(=O)O)nc(-c2ccc(I)cc2)c1Cl [Compound 173] | 8 g ai/ha | 26 g ai/ha | 2 g ai/ha | 4 g ai/ha | 12 g ai/ha | 33 g ai/ha | 24 g ai/ha | 47 g ai/ha | 16 g ai/ha | 1 g ai/ha | 1 g ai/ha | 1 g ai/ha | 1 g ai/ha | 75 to 84% | 95 to 100% | 95 to 100% | 95 to 100% | 75 to 84% | 95 to 100% | 45 to 59% | pest or weed control at 70 g/ha [14]: 95 to 100%; pest or weed control at 35 g/ha [15]: 45 to 59%; pest or weed control at 70 g/ha [16]: 60 to 74%; pest or weed control at 35 g/ha [17]: 95 to 100%; pest or weed control at 70 g/ha [18]: 95 to 100%; pest or weed control at 35 g/ha [19]: 95 to 100%; pest or weed control at 70 g/ha [20]: 95 to 100%
COC(=O)c1nc(-c2ccc(I)cc2)c(Cl)c(N)c1Cl [Compound 96] | 19 g ai/ha | 58 g ai/ha | 3 g ai/ha | 6 g ai/ha | 29 g ai/ha | 84 g ai/ha | 27 g ai/ha | 58 g ai/ha | 130 g ai/ha | 1 g ai/ha | 1 g ai/ha | 1 g ai/ha | 1 g ai/ha | 60 to 74% | 85 to 94% | 95 to 100% | 95 to 100% | 45 to 59% | 85 to 94% | 85 to 94% | pest or weed control at 70 g/ha [14]: 75 to 84%; pest or weed control at 35 g/ha [15]: 0 to 29%; pest or weed control at 70 g/ha [16]: 0 to 29%; pest or weed control at 35 g/ha [17]: 95 to 100%; pest or weed control at 70 g/ha [18]: 95 to 100%; pest or weed control at 35 g/ha [19]: 95 to 100%; pest or weed control at 70 g/ha [20]: 95 to 100%
COC(=O)c1nc(-c2ccc(C(F)(F)F)c(F)c2)c(Cl)c(N)c1Cl [Compound 58] | >70 g ai/ha | >70 g ai/ha | 4 g ai/ha | 8 g ai/ha | >70 g ai/ha | >70 g ai/ha | >70 g ai/ha | >70 g ai/ha | >70 g ai/ha | 5 g ai/ha | 8 g ai/ha | 2 g ai/ha | 4 g ai/ha | – | – | – | – | – | – | – | Visual Growth Reduction (%) 21 Days After Application BRAPP (BRAPP: broadleaf signalgrass, Brachiaria platyphylla, 35 g ai/ha): G (0-29); Visual Growth Reduction (%) 21 Days After Application BRAPP (BRAPP: broadleaf signalgrass, Brachiaria platyphylla, 70 g ai/ha): G (0-29); Visual Growth Reduction (%) 21 Days After Application CYPSS (CYPSS: sedge (Cyperus difformis, esculentus, iria), 35 g ai/ha): A (95-100); Visual Growth Reduction (%) 21 Days After Application CYPSS (CYPSS: sedge (Cyperus difformis, esculentus, iria), 70 g ai/ha): A (95-100); Visual Growth Reduction (%) 21 Days After Application ECHSS (ECHSS: barnyardgrass (Echinochloa crus-galli), junglerice (Echinochloa colonum), 35 g ai/ha): G (0-29); Visual Growth Reduction (%) 21 Days After Application ECHSS (ECHSS: barnyardgrass (Echinochloa crus-galli), junglerice (Echinochloa colonum), 70 g ai/ha): G (0-29); Visual Growth Reduction (%) 21 Days After Application LEFSS (LEFSS: sprangletop (Leptochloa chinensis, Leptochloa dubia), 35 g ai/ha): G (0-29); Visual Growth Reduction (%) 21 Days After Application LEFSS (LEFSS: sprangletop (Leptochloa chinensis, Leptochloa dubia), 70 g ai/ha): E (45-59); Visual Growth Reduction (%) 21 Days After Application ORYSS (ORYSS: Oryza sativa, 35 g ai/ha): G (0-29); Visual Growth Reduction (%) 21 Days After Application ORYSS (ORYSS: Oryza sativa, 70 g ai/ha): G (0-29); Visual Growth Reduction (%) 21 Days After Application SCPJU (SCPJU: Japanese bulrush, Scirpus juncoides, 35 g ai/ha): A (95-100); Visual Growth Reduction (%) 21 Days After Application SCPJU (SCPJU: Japanese bulrush, Scirpus juncoides, 70 g ai/ha): A (95-100); Visual Growth Reduction (%) 21 Days After Application SEBEX (SEBEX: hemp sesbania, Sesbania exaltata, 35 g ai/ha): A (95-100); Visual Growth Reduction (%) 21 Days After Application SEBEX (SEBEX: hemp sesbania, Sesbania exaltata, 70 g ai/ha): A (95-100)
